The source of these data is paper PMC10847966 (Nature chemical biology, 2023).

Assay [1] deals with MthK (Methanothermobacter thermautotrophicus, UniProt O27564, A90L). The assay can be described thus: stopped-flow Tl+ flux assay in liposomes. The format is biochemical.
Assay [2] has as its target MthK (Methanothermobacter thermautotrophicus, UniProt O27564, A88F). The assay is described as follows: single-particle cryo-EM structure. The format is binding.
Assay [3] addresses MthK (Methanothermobacter thermautotrophicus, UniProt O27564, V91F). The assay can be described thus: stopped-flow Tl+ flux assay in liposomes. The format is biochemical.

Take `CCCCC[N+](CCCCC)(CCCCC)CCCCC` [TPeA]: the IC50 was determined as 9.7 µM in assay [1] and 2.05 µM in assay [3]. Further, in assay [2], the “single-particle cryo-EM structure” value is on record as “Processing workflow for A88F-TPeA dataset, TPeA densities in the maps with C4 symmetry (mesh), TPeA molecule (stick)”.

A word on the IC50: it is the concentration at which inhibition is half-maximal. A lower IC50 goes with higher potency.
